Experimental data: the NIST ThermoML archive (doi:10.1016/j.tca.2010.03.028)

What was measured:
[1] = xn = mol fraction of the nth substance listed; settings: 308.15 K, 101 kPa, Liquid; for excess molar volume: Direct dilatometry; for speed of sound: Linear variable-path acoustic interferometer
[2] = excess molar enthalpy (molar enthalpy of mixing); xn = mol fraction of the nth substance listed; settings: 308.15 K, 101 kPa, Liquid, Calvet calorimetry

C1CCOCC1 [tetrahydropyran] + CCCCCC
Settings | excess molar enthalpy [kcal/mol] | excess molar volume [m3/mol] | speed of sound [m/s]
[1], x1 = 0.0328 | – | 1.4e-08 | –
[1], x1 = 0.0459 | – | 1.9e-08 | –
[1], x1 = 0.0694 | – | 2.7e-08 | –
[1], x1 = 0.0785 | – | 3e-08 | –
[1], x1 = 0.0981 | – | – | 1054
[1], x1 = 0.1294 | – | 4.4e-08 | –
[1], x1 = 0.1561 | – | 4.9e-08 | –
[1], x1 = 0.1578 | – | – | 1067
[1], x1 = 0.1965 | – | – | 1075
[1], x1 = 0.2753 | – | 6.4e-08 | –
[1], x1 = 0.2955 | – | – | 1093
[1], x1 = 0.3262 | – | 6.6e-08 | –
[1], x1 = 0.3313 | – | – | 1099
[1], x1 = 0.3955 | – | – | 1110
[1], x1 = 0.4469 | – | – | 1118
[1], x1 = 0.4629 | – | 6.2e-08 | –
[1], x1 = 0.4947 | – | – | 1126
[1], x1 = 0.515 | – | 5.8e-08 | –
[1], x1 = 0.5211 | – | – | 1130
[1], x1 = 0.5955 | – | – | 1143
[1], x1 = 0.6692 | – | 4.2e-08 | –
[1], x1 = 0.6955 | – | – | 1161
[1], x1 = 0.7311 | – | – | 1168
[1], x1 = 0.7837 | – | 2.8e-08 | –
[1], x1 = 0.7965 | – | – | 1181
[1], x1 = 0.8461 | – | 2e-08 | –
[1], x1 = 0.8992 | – | – | 1203
[1], x1 = 0.9239 | – | 1e-08 | –
[2], x1 = 0.0581 | 0.0246 | – | –
[2], x1 = 0.1073 | 0.044 | – | –
[2], x1 = 0.1962 | 0.075 | – | –
[2], x1 = 0.2274 | 0.0844 | – | –
[2], x1 = 0.3276 | 0.109 | – | –
[2], x1 = 0.3888 | 0.12 | – | –
[2], x1 = 0.4395 | 0.126 | – | –
[2], x1 = 0.4968 | 0.13 | – | –
[2], x1 = 0.522 | 0.131 | – | –
[2], x1 = 0.5931 | 0.129 | – | –
[2], x1 = 0.6634 | 0.121 | – | –
[2], x1 = 0.7514 | 0.103 | – | –
[2], x1 = 0.8124 | 0.0849 | – | –
[2], x1 = 0.8997 | 0.0509 | – | –

C1CCOCC1 [tetrahydropyran] + CCCCCCC
Settings | excess molar enthalpy [kcal/mol] | excess molar volume [m3/mol] | speed of sound [m/s]
[1], x1 = 0.0543 | – | 5.7e-08 | –
[1], x1 = 0.0833 | – | – | 1100
[1], x1 = 0.113 | – | 1.11e-07 | –
[1], x1 = 0.1323 | – | – | 1107
[1], x1 = 0.1977 | – | – | 1117
[1], x1 = 0.2031 | – | 1.77e-07 | –
[1], x1 = 0.2396 | – | – | 1127
[1], x1 = 0.2613 | – | 2.1e-07 | –
[1], x1 = 0.2998 | – | 2.28e-07 | –
[1], x1 = 0.3245 | – | – | 1137
[1], x1 = 0.3475 | – | 2.45e-07 | –
[1], x1 = 0.3812 | – | – | 1145
[1], x1 = 0.3991 | – | 2.58e-07 | –
[1], x1 = 0.4396 | – | – | 1154
[1], x1 = 0.4441 | – | 2.65e-07 | –
[1], x1 = 0.4964 | – | 2.68e-07 | –
[1], x1 = 0.5033 | – | – | 1163
[1], x1 = 0.5601 | – | 2.64e-07 | –
[1], x1 = 0.5684 | – | – | 1172
[1], x1 = 0.6107 | – | 2.55e-07 | –
[1], x1 = 0.6161 | – | – | 1178
[1], x1 = 0.688 | – | – | 1187
[1], x1 = 0.7123 | – | 2.2e-07 | –
[1], x1 = 0.7646 | – | – | 1197
[1], x1 = 0.8011 | – | 1.72e-07 | –
[1], x1 = 0.8223 | – | – | 1204
[1], x1 = 0.8999 | – | 9.8e-08 | –
[1], x1 = 0.9044 | – | – | 1213
[2], x1 = 0.0842 | 0.0387 | – | –
[2], x1 = 0.1777 | 0.0796 | – | –
[2], x1 = 0.2324 | 0.101 | – | –
[2], x1 = 0.3339 | 0.132 | – | –
[2], x1 = 0.3741 | 0.141 | – | –
[2], x1 = 0.4413 | 0.15 | – | –
[2], x1 = 0.5008 | 0.153 | – | –
[2], x1 = 0.5989 | 0.147 | – | –
[2], x1 = 0.6821 | 0.13 | – | –
[2], x1 = 0.7124 | 0.122 | – | –
[2], x1 = 0.7654 | 0.104 | – | –
[2], x1 = 0.8325 | 0.0779 | – | –
[2], x1 = 0.8778 | 0.0581 | – | –
[2], x1 = 0.9213 | 0.0379 | – | –

C1CCOCC1 [tetrahydropyran] + C1CCCCC1
Settings | excess molar enthalpy [kcal/mol] | excess molar volume [m3/mol] | speed of sound [m/s]
[1], x1 = 0.0648 | – | 9.1e-08 | –
[1], x1 = 0.0785 | – | – | 1209
[1], x1 = 0.1372 | – | 1.72e-07 | –
[1], x1 = 0.161 | – | – | 1205
[1], x1 = 0.1954 | – | 2.24e-07 | –
[1], x1 = 0.1965 | – | – | 1204
[1], x1 = 0.2351 | – | 2.53e-07 | –
[1], x1 = 0.2477 | – | – | 1202
[1], x1 = 0.303 | – | 2.9e-07 | –
[1], x1 = 0.3378 | – | – | 1200
[1], x1 = 0.3575 | – | 3.1e-07 | –
[1], x1 = 0.3879 | – | – | 1199
[1], x1 = 0.433 | – | – | 1199
[1], x1 = 0.4351 | – | 3.23e-07 | –
[1], x1 = 0.4712 | – | – | 1199
[1], x1 = 0.4911 | – | 3.22e-07 | –
[1], x1 = 0.5344 | – | – | 1200
[1], x1 = 0.5412 | – | 3.14e-07 | –
[1], x1 = 0.5988 | – | – | 1202
[1], x1 = 0.6421 | – | – | 1203
[1], x1 = 0.6536 | – | 2.76e-07 | –
[1], x1 = 0.721 | – | 2.4e-07 | –
[1], x1 = 0.7533 | – | – | 1209
[1], x1 = 0.7952 | – | 1.9e-07 | –
[1], x1 = 0.8066 | – | – | 1212
[1], x1 = 0.8827 | – | 1.17e-07 | –
[1], x1 = 0.9325 | – | 7e-08 | –
[2], x1 = 0.0634 | 0.0319 | – | –
[2], x1 = 0.1146 | 0.0546 | – | –
[2], x1 = 0.2073 | 0.088 | – | –
[2], x1 = 0.2734 | 0.106 | – | –
[2], x1 = 0.3379 | 0.118 | – | –
[2], x1 = 0.3805 | 0.123 | – | –
[2], x1 = 0.4339 | 0.127 | – | –
[2], x1 = 0.5322 | 0.126 | – | –
[2], x1 = 0.6045 | 0.118 | – | –
[2], x1 = 0.6848 | 0.103 | – | –
[2], x1 = 0.7529 | 0.0864 | – | –
[2], x1 = 0.7939 | 0.0744 | – | –
[2], x1 = 0.8564 | 0.054 | – | –
[2], x1 = 0.8976 | 0.0394 | – | –
